# Experimental data published in article PMC8457056, “Remodeling of the Fibrillation Pathway of α‐Synuclein by Interaction with Antimicrobial Peptide LL‐III” (Chemistry (Weinheim an Der Bergstrasse, Germany), 2021).
# Experiments:
# α‐Syn = assay: fraction of complexed α-Syn calculated from Kb; type: binding, human; conditions: 100 μM α-Syn, calculated from K b
# Procedure: From the magnitude of K b, the fraction of complexed α‐Syn in the microscopy experiments could be calculated (Figure S5). For 100 μM α‐Syn, the fraction of complexed α‐Syn, θ, in the presence of 50 μM LL‐III amounts to about 0.3. […] This is likely due to the ability of the peptide to interact with one or two α‐Syn molecules within the droplets. The interaction is expected to occur mainly via the interaction of the positively charged (+6) and hydrophobic groups of LL‐III with the negatively charged C‐terminus (−12) and hydrophobic NAC region of α‐Syn, respectively. […] In the presence of 200 μM and 500 μM LL‐III, the θ‐values are 0.70 and 0.90, respectively.
# Figure S4. Binding isotherm obtained by means of Trp steady-state fluorescence anisotropy. The experiment was performed by titrating a 5 µM solution of LL-III with a solution of α-Syn in the range 0-50 µM. The red line represents the best fit according to a 1:1 binding model. The experiments were performed in 20 mM sodium acetate buffer, pH 5.0, at 25 °C.
# Figure S5. Plot of the fraction of bound α -Syn as a function of the total peptide concentration. The fraction of bound α -Syn was calculated according to the concentration used in the phase- contrast light microscopy experiments reported in Figu re 1 B of the main text: 100 µ M α-Syn and 50 µM (grey circle), 200 µM (red circle) and 500 µ M (blue circle) of LL-III. […]
# [1] = circular dichroism spectroscopy of LL-III; type: physicochemical; conditions: 300 μM LL-III; 20 mM sodium acetate, pH 5.0, 25 °C; minimum around 195 nm
# Procedure: Figure 2 A) Binding isotherm obtained by means of steady‐state fluorescence anisotropy measurements. The experiment was performed by titrating a 4 μM solution of carboxyfluorescein‐labeled LL‐III with a solution of α‐Syn in the range 0–100 μM. The red line represents the best fit according to a 1 : 1 binding model.[29] The fluorophore was covalently attached to the N‐terminus of the peptide. B) Circular dichroism (CD) spectra of LL‐III (black solid line), α‐Syn (red solid line,) and of a mixture of LL‐III and α‐Syn (blue solid line) recorded at day 0. Shown are also spectra of the LL‐III/α‐Syn mixture recorded after 5 days (dashed blue line) and after 10 days (dotted blue lines). Here, the concentration of LL‐III was 300 μM, and the concentration of α‐Syn was 30 μM. […]
# Next, by means of circular dichroism (CD) spectroscopy, we explored the effect of LLPS formation and LL‐III partitioning on the conformation of the protein. […] In support of this conclusion, we note that the spectrum of the mixture is superimposable with the sum of the spectra of LL‐III and α‐Syn, which were recorded separately (Figure S6). The time evolution of the CD spectrum of the LL‐III/α‐Syn mixture was also recorded after 5 and 10 days (Figure 2B). […]
# µM) and following the anisotropy changes of the Trp residue. […] The anisotropy was evaluated at 354 nm which corresponds to the maximum of emission of the free peptide. […]
substance,measurement,setting,value
NH2-VNWKKIL GKIIKVVK -CONH2 [LL‐III],"fraction of complexed α‐Syn, θ",α‐Syn; 50 μM LL-III,about 0.3
same,"fraction of complexed α‐Syn, θ",α‐Syn; 200 μM LL-III,0.70
same,"fraction of complexed α‐Syn, θ",α‐Syn; 500 μM LL-III,0.90
same,conformation (CD),[1],random‐coiled conformation in solution
